For one test, the system named is Monomac1 cells. The test can be described thus: Viability of Monomac1 AML cell line, CellTiterGlo 72 h. The following applies: read-out: IC50 M (CTG 72 h) Monomac1. Format: cell-based. Here is the method:
Monomac1 cells were cultivated in RPMI supplemented with 10% heat inactivated fetal bovine serum, penicillin (100 IU/ml), streptomycin ([…]) and L-glutamine (2 mM). Cell lines were cultured at 37° C. in a humidified atmosphere containing 5% CO2. Cells were seeded in 96 microwell plates and exposed to the payloads or ADCs for 72 h (serially diluted; 9 concentrations each, triplicates). Effects of payloads or ADCs on cell viability were assessed after 3 days of incubation at 37° C./5% CO2 by quantification of cellular ATP levels using CellTiterGlo at 75 μL reagent/well. All the conditions were tested in triplicates. Luminescence was quantified on a multipurpose plate reader. IC50s were calculated using standard four-parametric curve fitting. […] Each experiment was performed at least twice, with results being reproducible.
For orientation: Cellular ATP, detected with luciferase, serves as a proxy for viable cell number.

The test system of the next test is EOL-1. Format: cell-based. Here is the method: (§1) The CD74 MCL-1 antibody drug conjugates were tested against three endogenous cancer cell lines. MONO-MAC-1 (DSMZ No. ACC-252 cultured in RPMI-1640+10% FBS+1× non-essential amino acids+1 mM sodium pyruvate), NOMO-1 (DSMZ No. ACC-542 cultured in RPMI-1640+10% FBS) and EOL-1 (DSMZ No. ACC-386 cultured in RPMI-1640+10% FBS)
(§2) The ability of the CD74 MCL-1 antibody drug conjugates to inhibit cell proliferation in combination with BCL-2 inhibitor and survival was assessed using the Promega CellTiter-Glo® proliferation assay. Cell lines were cultured in media that is optimal for their growth at 5% CO2, 37° C. in a tissue culture incubator. Prior to seeding for the proliferation assay, the cells were split at least 2 days before the assay to ensure optimal growth density. On the day of seeding, suspension cells were harvested. Cell viability and cell density were determined using a cell counter (Vi-Cell XR Cell Viability Analyzer, Beckman Coulter). […] Cells were seeded at a density of 1,000 cells per well in 45 μL of standard growth media. Plates were incubated at 5% CO2, 37° C. overnight in a tissue culture incubator. The next day, free MCL-1 payload (P1), targeting MCL-1 ADCs and non-targeting isotype ADCs were prepared at 10× in standard growth media. The prepared drug treatments were then added to the cells resulting in final concentrations of 0.0005-300 nM and a final volume of 50 μL per well. Each drug concentration was tested in quadruplets. Three conditions were evaluated for each compound. The compounds were evaluated as single agents and in combination with Venetoclax and in combination with Compound A1. The Venetoclax and Compound A1 were dosed at either 5 nM or 50 nM final concentration. Plates were incubated at 5% CO2, 37° C. for 5 days in a tissue culture incubator, after which cell viability was assessed through the addition of 25 μL of CellTiter Glo® (Promega, cat#G7573), a reagent which lyses cells and measures total adenosine triphosphate (ATP) content. Plates were incubated at room temperature for 10 minutes to stabilize luminescent signals prior to reading using a luminescence reader (EnVision Multilabel Plate Reader, PerkinElmer). To evaluate the effect of the drug treatments, luminescent counts from wells containing untreated cells (100% viability) were used to normalize treated samples. A variable slope model was applied to fit a nonlinear regression curve to the data in GraphPad PRISM version 7.02 software. IC50 and Amax values were extrapolated from the resultant curves.

A further test relates to NOMO-1. In kind it is cell-based. Here is the method:
as §1, §2

The next test concerns MONO-MAC-1. Format: cell-based. Here is the method:
as §1, §2

The subject of test [1] is EOL1 human acute myeloid (eosinophilic) leukemia xenograft model. The test can be described thus: EOL1 xenograft, CD74-ADCs Fc silent with different linker payloads (Example 15). Format: in vivo, mice. The following applies: for T/C (%): day 10; for ΔTumor volume (mm^3): day 10, mean. Here is the method: To optimize the linker payload, efficacy of 6 CD74-ADCs with different linker payloads (L5-P1, L30-P1, L31-P1, L32-P1, L33-P1 and L34-P1) was evaluated in the EOL1 model in vivo.
EOL1 luciferase transfected cells were cultured at 37° C. in an atmosphere of 5% CO2 in air in RPM11640 (BioConcept Ltd. Amimed) supplemented with 10% FCS (BioConcept Ltd. Amimed, #2-01 F30-1), 2 mM L-glutamine (BioConcept Ltd. Amimed, #5-10K00-H) and 1 mM sodium pyruvate (BioConcept Ltd. Amimed, #5-60F00-H), 10 mM HEPES (Gibco #11560496). To establish EOL1 xenografts cells were harvested and re-suspended in HBSS (Gibco, #14175) before injecting 100 μL containing 5×10^6 cells subcutaneously in the flanks of female SCID beige mice (Charles River, Germany). Tumor growth was monitored regularly post cell inoculation and animals were randomized into treatment groups (n=6) with a mean tumor volume of about 130 mm^3. The ADCs were administered intravenously (iv) once at the start of treatment at 2.5 mg/kg or at 3.3 mg/kg in combination with venetoclax which was administered orally (po) daily (qd) at 50 mg/kg. Doses were adjusted to individual mouse body weights. The iv dose volume was 10 ml/kg and each ADC was dissolved in 0.9% (w/v) NaCl in water. Tumor volume data on day 10 post treatment were analyzed statistically using one way ANOVA post hoc Tukey's multiple comparisons test (Indigo Software). Results are presented as mean±SEM. As a measure of efficacy the % T/C value is calculated on day 10 according to:
(Δtumor volume^treated/Δtumor volume^control)*100
Tumor regression was calculated according to:
−(Δtumor volume^treated/tumor volume^treated at start)*100
Where Δtumor volumes represent the mean tumor volume on the evaluation day minus the mean tumor volume at the start of the experiment.

Setting [2] is: 2.5 mg/kg i.v. once + Venetoclax 50 mg/kg p.o. qd.
[3] abbreviates: female SCID beige mice, 2.5 mg/kg i.v. once + Venetoclax 50 mg/kg p.o. qd.
Setting [4] is: 3.3 mg/kg i.v. once + Venetoclax 50 mg/kg p.o. qd.

Read-outs that look alike come from different tables or passages of the source. Marks after values point to notes of the source that are not given here.

Results on seven compounds are retold here after patent US20230081720A1, “MCL-1 INHIBITOR ANTIBODY-DRUG CONJUGATES AND METHODS OF USE” (NOVARTIS AG, priority 2019, published 2023).

In general, IC50 refers to the concentration at which inhibition is half-maximal.

For the compound `Cc1c(Cl)c2c(Cl)c(C)c1-c1c(-c3ccc(F)cc3)sc3ncnc(c13)O[C@@H](C(=O)O)Cc1cc(ccc1OCc1ccnc([C@H]3CC[C@](F)(COC[C@@H]4COCCO4)CC3)n1)OC[C@@H](CN1CCN(C)CC1)O2` [P16, (11R,20R)-23,26-dichloro-14-[[2-[4-[[(2S)-1,4-dioxan-2-yl]methoxymethyl]-4-fluoro-cyclohexyl]pyrimidin-4-yl]methoxy]-3-(4-fluorophenyl)-24,25-dimethyl-20-[(4-methylpiperazin-1-yl)methyl]-10,18,21-trioxa-4-thia-6,8-diazapentacyclo[20.2.2.12,5.113,17.09,28]octacosa-1(24),2,5(28),6,8,13,15,17(27),22,25-decaene-11-carboxylic Acid], the IC50 with Monomac1 cells (Mono-Mac-1, 72 h) came out at 0.281 nM.
In the case of `COCCOCCOCCOCCOCCOCCOCCOCCOCCOCCOCCOCCOCCOCCOCCOCCOCCOCCOCCOCCOCCOCCOCCOCCn1cc(COCc2cc(NC(=O)[C@H](CCCNC(N)=O)NC(=O)[C@@H](NC(=O)CCOCCN3C(=O)CC(C)C3=O)C(C)C)ccc2C[N+]2(C)CCN(CCOc3ccc(-c4c(-c5ccc(F)cc5)sc5ncnc(O[C@H](Cc6ccccc6OCc6ccnc(-c7ccccc7OC)n6)C(=O)O)c45)c(C)c3Cl)CC2)nn1` (stereo partly shown) [CD74-L5-P1], the half-maximal inhibitory concentration (IC50) in the test on EOL-1 (+ 5 nM Compound A1, 5 days) turned out to be 0.136 nM; in the test with EOL-1 (+ 5 nM Venetoclax, 5 days) it was 0.164 nM; with EOL-1 (single agent, 5 days), 1.42 nM; in the test with NOMO-1 (+ 5 nM Compound A1, 5 days), 0.457 nM; in the test with NOMO-1 (+ 5 nM Venetoclax, 5 days), 1.03 nM; in the test on NOMO-1 (+ 50 nM Compound A1, 5 days), 0.138 nM. The IC50 turned out to be 0.278 nM in the test on NOMO-1 (+ 50 nM Venetoclax, 5 days); 3.7 nM in the test on NOMO-1 (single agent, 5 days); 0.636 nM in the test on MONO-MAC-1 (+ 5 nM Compound A1, 5 days); 1.31 nM with MONO-MAC-1 (+ 5 nM Venetoclax, 5 days); 0.156 nM in the test with MONO-MAC-1 (+ 50 nM Compound A1, 5 days); 0.409 nM with MONO-MAC-1 (+ 50 nM Venetoclax, 5 days). Further, in the test with MONO-MAC-1 (single agent, 5 days), the IC50 came out at 7.95 nM. Besides, the “Amax (Span) EOL-1” value with EOL-1 (single agent, 5 days) is reported as 91.25. In the test with NOMO-1 (single agent, 5 days), the “Amax (Span) NOMO-1” value amounted to 74.45. In the test on MONO-MAC-1 (single agent, 5 days), the “Amax (Span) MONO-MAC-1” value amounted to 84.9. In addition, the “T/C (%)” value in test [1] (setting [2]) is 70%. The “ΔTumor volume (mm^3)” value in test [1] (setting [3]) is given as 702 mm^3.
For the compound `COc1ccccc1-c1nccc(COc2ccccc2C[C@@H](Oc2ncnc3sc(-c4ccc(F)cc4)c(-c4ccc(OCCN5CC[N+](C)(Cc6ccc(NC(=O)[C@H](CCCNC(N)=O)NC(=O)[C@@H](NC(=O)CCOCCN7C(=O)CC(C)C7=O)C(C)C)cc6)CC5)c(Cl)c4C)c23)C(=O)O)n1` (stereo partly shown) [CD74-L9-P1], the IC50 in the test with Monomac1 cells (72 h) was determined as 0.482 nM.
Turning to `COc1ccccc1-c1nccc(COc2ccc3cc2C[C@H](C(=O)O)Oc2ncnc4sc(-c5ccc(F)cc5)c(c24)-c2c(C)c(Cl)c(c(Cl)c2C)O[C@H](CN2CCN(C)CC2)CO3)n1` [P15, (11R,20R)-23,26-dichloro-3-(4-fluorophenyl)-14-[[2-(2-methoxyphenyl)pyrimidin-4-yl]methoxy]-24,25-dimethyl-20-[(4-methylpiperazin-1-yl)methyl]-10,18,21-trioxa-4-thia-6,8-diazapentacyclo[20.2.2.12,5.113,17.09,28]octacosa-1(25),2,5(28),6,8,13,15,17(27),22(26),23-decaene-11-carboxylic acid], the IC50 with Monomac1 cells (Mono-Mac-1, 72 h) amounted to 0.386 nM.
Same read-out and setting: as for `Cc1c(Cl)c2c(Cl)c(C)c1-c1c(-c3ccc(F)cc3)sc3ncnc(c13)O[C@@H](C(=O)O)Cc1cc(ccc1OCc1ccnc([C@H]3CC[C@H](OC[C@@H]4COCCO4)CC3)n1)OC[C@@H](CN1CCN(C)CC1)O2` [P17, (11R,20R)-23,26-dichloro-14-[[2-[4-[[(2S)-1,4-dioxan-2-yl]methoxy]cyclohexyl]pyrimidin-4-yl]methoxy]-3-(4-fluorophenyl)-24,25-dimethyl-20-[(4-methylpiperazin-1-yl)methyl]-10,18,21-trioxa-4-thia-6,8-diazapentacyclo[20.2.2.12,5.113,17.09,28]octacosa-1(24),2,5(28),6,8,13,15,17(27),22,25-decaene-11-carboxylic Acid], the figure is 0.62 nM.
With `COCCOCCOCCOCCOCCOCCOCCOCCOCCOCCOCCOCCC(=O)N(C)Cc1cc(NC(=O)[C@H](CCCNC(N)=O)NC(=O)[C@@H](NC(=O)CCOCCN2C(=O)CC(C)C2=O)C(C)C)ccc1C[N+]1(C)CCN(CCOc2ccc(-c3c(-c4ccc(F)cc4)sc4ncnc(O[C@H](Cc5ccccc5OCc5ccnc(-c6ccccc6OC)n5)C(=O)O)c34)c(C)c2Cl)CC1` (stereo partly shown) [CD74-L32-P1], in test [1] (setting [2]), the “T/C (%)” value is 4*^$ %. For the same compound, the “ΔTumor volume (mm^3)” value in test [1] (setting [3]) is 38 mm^3.
In the case of `COCCOCCOCCOCCOCCOCCOCCOCCOCCOCCOCCOCCOCCOCCOCCOCCn1cc(COCc2cc(NC(=O)[C@H](CCCNC(N)=O)NC(=O)[C@@H](NC(=O)CCOCCN3C(=O)CC(C)C3=O)C(C)C)ccc2C[N+]2(C)CCN(CCOc3ccc(-c4c(-c5ccc(F)cc5)sc5ncnc(O[C@H](Cc6ccccc6OCc6ccnc(-c7ccccc7OC)n6)C(=O)O)c45)c(C)c3Cl)CC2)nn1` (stereo partly shown) [CD74-L34-P1], the “T/C (%)” value in test [1] (setting [2]) is on record as 40* %; in test [1] (setting [4]), 17*^$ %. For the same compound, the entries for the “ΔTumor volume (mm^3)” value in test [1] (setting [4]) and in test [1] (setting [3]) were 170 mm^3 and 401 mm^3, respectively.
